Reference: patent US20090017452A1, “METHODS AND COMPOSITIONS RELATING TO THE PHARMACOGENETICS OF DIFFERENT GENE VARIANTS” (UNIVERSITY OF CHICAGO, priority 2004, published 2009)
Where a chain is given by its changes, count along the chain named. Read-outs that look alike come from different tables or passages of the source.

Assays:
[1] = cited from earlier work
[2] = target: T1, SLCO1B1*15 (N130D and V174A) (Homo sapiens, UniProt Q9Y6L6, N130D/V174A); details: Xenopus oocytes, among the variants examined; cited from earlier work
T1 sequence (Q9Y6L6 1-691 N130D/V174A): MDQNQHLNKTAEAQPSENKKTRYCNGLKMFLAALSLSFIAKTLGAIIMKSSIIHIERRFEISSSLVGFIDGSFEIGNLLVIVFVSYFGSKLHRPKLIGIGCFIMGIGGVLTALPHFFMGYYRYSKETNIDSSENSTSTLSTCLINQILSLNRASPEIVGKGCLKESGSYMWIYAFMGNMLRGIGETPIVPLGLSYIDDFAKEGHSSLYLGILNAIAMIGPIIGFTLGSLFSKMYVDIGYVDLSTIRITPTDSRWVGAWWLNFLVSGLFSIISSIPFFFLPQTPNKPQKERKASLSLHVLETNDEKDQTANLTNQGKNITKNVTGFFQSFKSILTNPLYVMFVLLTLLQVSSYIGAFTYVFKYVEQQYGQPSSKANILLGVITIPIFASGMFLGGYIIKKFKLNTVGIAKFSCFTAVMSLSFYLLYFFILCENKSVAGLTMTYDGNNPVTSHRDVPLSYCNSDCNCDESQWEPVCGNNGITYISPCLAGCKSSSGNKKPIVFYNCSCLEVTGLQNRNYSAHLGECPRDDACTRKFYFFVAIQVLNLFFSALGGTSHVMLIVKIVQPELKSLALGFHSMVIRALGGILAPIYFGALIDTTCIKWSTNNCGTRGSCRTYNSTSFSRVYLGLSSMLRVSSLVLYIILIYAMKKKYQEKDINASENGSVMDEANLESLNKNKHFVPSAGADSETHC

[3] = CPT-11 pharmacokinetics by SLCO1B1*5 genotype in patients; details: human, in vivo, intravenous
Excerpt: Six SNPs in ABCC2 were genotyped [−1549G>A, −1019A>G, −24C>T, 1249G>A, intron 27 −34C>T, 3972C>T] and haplotypes were estimated. Two SNPs in SLCO1B1 [*1b (388A>G) and *5 (521T>C)] were also genotyped.

OATP1B1 = target: T2, OATP1B1 (Homo sapiens, UniProt Q9Y6L6); details: cited from earlier work; for transport activity by OATP1B1: OATP1B1*1a and three common variants
T2 construct: expressed in transfected cells; host or cells: HEK293 cells (stably transfected); Xenopus oocytes
T2 sequence (Q9Y6L6 1-691): T1 sequence (Q9Y6L6 1-691 N130D/V174A) with D130N, A174V

[4] = cited from earlier work; remark: listed apart in the source
[5] = Irinotecan and metabolite AUC by ABCC2 3972C>T genotype in cancer patients
Excerpt: Sixty-four adults (48 Caucasians, 10 African-Americans, 4 Hispanics, and 2 others) with refractory solid tumors took part in the pharmacogenetic study.

[6] = after intra peritoneal administration of irinotecan; cited from earlier work

CC[C@H](C)C(=O)O[C@H]1C[C@H](O)C=C2C=C[C@H](C)[C@H](CC[C@@H](O)C[C@@H](O)CC(=O)O)[C@H]21 [pravastatin]
mean pravastatin AUC0-12 higher compared to non-carriers ([1]; heterozygous carriers of *15B (388A>G and 521T>C)): 93% | mean pravastatin AUC0-12 higher compared to non-carriers ([1]; heterozygous carriers of *17 (-11187G>A, 388A>G and 521T>C)): 130% | mean pravastatin AUC0-12 higher compared to reference genotype ([1]; subjects with 521TC genotype): 106% | mean pravastatin AUC0-12 higher compared to reference genotype ([1]; subjects with -11187GA genotype): 98% | transport activity of variant SLCO1B1*15 [2]: decreased transport activities

CCc1c2c(nc3ccc(OC(=O)N4CCC(N5CCCCC5)CC4)cc13)-c1cc3c(c(=O)n1C2)COC(=O)[C@]3(O)CC [irinotecan]
AUC ([3]; 350 mg/m^2, patients with SLCO1B1*5 CT+CC genotype): 29500 ± 8800 ng·h/mL | AUC ([3]; 350 mg/m^2, patients with SLCO1B1*5 TT genotype): 22300 ± 5100 ng·h/mL | transport activity by OATP1B1 (OATP1B1): not transported | patients experiencing grade 3-4 neutropenia ([4]; both weekly and three-weekly regimens): 30-40% | patients with grade 3-4 diarrhea ([4]; early single agent trials, dose limiting): about one third | frequency of grade 3-4 diarrhea ([4]; three-weekly regimen): 19% | mortality rate ([4]; three-weekly single agent regimen): 1.6% | frequency of grade 3-4 diarrhea ([4]; weekly schedule): 36% | mortality rate ([4]; weekly single agent regimen): 5.3% | AUC in ABCC2 3972 TT patients compared to CT and CC patients ([5]; 350 mg/m^2 IV dose of irinotecan, 64 patients): higher AUC values

CCc1c2c(nc3ccc(O[C@@H]4O[C@H](C(=O)O)[C@@H](O)[C@H](O)[C@H]4O)cc13)-c1cc3c(c(=O)n1C2)COC(=O)[C@]3(O)CC [SN-38G, 10O-glucuronyl-SN-38]
transport activity by OATP1B1 (OATP1B1): not transported

CCc1c2c(nc3ccc(O)cc13)-c1cc3c(c(=O)n1C2)COC(=O)[C@]3(O)CC [SN-38, 7-ethyl-10-hydroxycamptothecin]
transport activity by OATP1B1 (OATP1B1): transport activity for SN-38 was observed | effect on SLCO1B1-mediated uptake of [(3)H]estrone-3-sulfate (OATP1B1): significant inhibitory effect | tissue accumulation of SN-38 [6]: accumulate in the intestine | transport activity of variant SLCO1B1*15 [2]: decreased transport activities | AUC versus ABCC2 3972C>T genotype (TT compared to CT and CC) ([5]; 350 mg/m^2 IV irinotecan, patients with 6/6 and 6/7 UGT1A1 genotype (n=54)): No significant correlation

CCc1c2c(nc3ccc(OC(=O)N4CCC(NCCCCC(=O)O)CC4)cc13)-c1cc3c(c(=O)n1C2)COC(=O)[C@]3(O)CC [APC]
AUC ratio APC/irinotecan in TT patients compared to CT and CC patients ([5]; 350 mg/m^2 IV irinotecan): Higher values of AUC ratios

C[C@]12CC[C@@H]3c4ccc(OS(=O)(=O)O)cc4CC[C@H]3[C@@H]1CCC2=O [estrone-3-sulfate]
transport activity of variant SLCO1B1*15 [2]: decreased transport activities
